Reference: patent US10670605B2, “Cysteine reactive probes and uses thereof” (The Scripps Research Institute, priority 2015, dated 2020)
“And” between values parts separate entries of the source, which are not always exact repeats. Identical values can stand only once.

What was measured:
Experiment in all cases: Competitive isoTOP-ABPP, cell lysates
Type in all cases: binding
ADA C75 (P00813) = molecular target: T1, ADA C75 (P00813) (Homo sapiens, UniProt P00813); details: for isoTOP-ABPP ratio, P00813_C75: 500 μM, invitro, ramos; for isoTOP-ABPP reactivity ratio, P00813_C75: 500 μm, in-vitro_ramos
T1 sequence (P00813 1-363): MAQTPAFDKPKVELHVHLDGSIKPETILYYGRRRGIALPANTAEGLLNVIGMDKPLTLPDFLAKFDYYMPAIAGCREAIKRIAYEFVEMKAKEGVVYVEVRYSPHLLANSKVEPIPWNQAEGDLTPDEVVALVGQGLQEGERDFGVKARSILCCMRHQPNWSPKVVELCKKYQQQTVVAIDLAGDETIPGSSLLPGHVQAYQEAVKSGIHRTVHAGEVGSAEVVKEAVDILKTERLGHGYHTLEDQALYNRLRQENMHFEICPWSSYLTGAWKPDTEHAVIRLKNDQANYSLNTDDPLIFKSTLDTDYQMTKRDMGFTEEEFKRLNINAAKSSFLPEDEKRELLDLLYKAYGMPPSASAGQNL

IRF4 C194 (Q15306) = molecular target: T2, IRF4 C194 (Q15306) (Homo sapiens, UniProt Q15306); details: for isoTOP-ABPP ratio, Q15306_C194: 500 μM, invitro, ramos; for isoTOP-ABPP reactivity ratio, Q15306_C194: 500 μm, in-vitro_ramos
T2 sequence (Q15306 1-451): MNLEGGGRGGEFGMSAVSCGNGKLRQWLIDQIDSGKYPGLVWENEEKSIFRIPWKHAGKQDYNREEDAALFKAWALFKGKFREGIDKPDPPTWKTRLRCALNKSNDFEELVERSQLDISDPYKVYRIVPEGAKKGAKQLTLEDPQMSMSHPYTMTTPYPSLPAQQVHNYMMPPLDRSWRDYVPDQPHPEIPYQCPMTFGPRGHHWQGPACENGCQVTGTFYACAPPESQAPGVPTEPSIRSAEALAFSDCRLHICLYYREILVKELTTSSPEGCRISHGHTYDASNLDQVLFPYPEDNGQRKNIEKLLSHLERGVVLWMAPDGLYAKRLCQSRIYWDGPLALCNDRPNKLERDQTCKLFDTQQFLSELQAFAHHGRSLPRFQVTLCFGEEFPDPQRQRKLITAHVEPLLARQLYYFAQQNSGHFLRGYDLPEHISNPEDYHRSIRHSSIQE

SAMHD1 C522 (Q9Y3Z3) = SAMHD1 C522 (Q9Y3Z3) (Homo sapiens, UniProt Q9Y3Z3); details: for isoTOP-ABPP ratio, Q9Y3Z3_C522: 500 μM, invitro
UBE2L3 C86 (P68036) = UBE2L3 C86 (P68036) (Homo sapiens, UniProt P68036); details: for isoTOP-ABPP ratio, P68036_C86: 500 μM, invitro; for isoTOP-ABPP reactivity ratio, P68036_C86: 500 μm
USP22 C171 (Q9UPT9) = molecular target: T3, USP22 C171 (Q9UPT9) (Homo sapiens, UniProt Q9UPT9); details: for isoTOP-ABPP ratio, Q9UPT9_C171: 500 μM, invitro, ramos; for isoTOP-ABPP reactivity ratio, Q9UPT9_C171: 500 μm
T3 sequence (Q9UPT9 1-525): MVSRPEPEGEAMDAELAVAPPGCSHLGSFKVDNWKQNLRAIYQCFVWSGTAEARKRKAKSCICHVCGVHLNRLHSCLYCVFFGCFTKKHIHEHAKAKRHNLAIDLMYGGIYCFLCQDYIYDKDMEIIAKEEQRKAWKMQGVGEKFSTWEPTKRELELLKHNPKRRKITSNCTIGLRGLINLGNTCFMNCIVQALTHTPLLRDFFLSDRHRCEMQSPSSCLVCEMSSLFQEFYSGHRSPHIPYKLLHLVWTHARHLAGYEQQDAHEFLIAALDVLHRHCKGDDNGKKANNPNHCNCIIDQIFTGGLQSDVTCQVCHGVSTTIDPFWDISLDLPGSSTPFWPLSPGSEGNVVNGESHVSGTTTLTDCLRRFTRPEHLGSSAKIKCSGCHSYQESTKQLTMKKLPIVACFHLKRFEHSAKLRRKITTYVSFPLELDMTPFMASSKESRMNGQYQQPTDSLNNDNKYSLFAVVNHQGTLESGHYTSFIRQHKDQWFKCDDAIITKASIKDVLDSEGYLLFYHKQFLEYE

SMILES | isoTOP-ABPP ratio, P00813_C75 (ADA C75 (P00813)) | isoTOP-ABPP ratio, Q15306_C194 (IRF4 C194 (Q15306)) | isoTOP-ABPP ratio, Q9Y3Z3_C522 (SAMHD1 C522 (Q9Y3Z3); 231) | isoTOP-ABPP ratio, P68036_C86 (UBE2L3 C86 (P68036); ramos) | isoTOP-ABPP ratio, Q9UPT9_C171 (USP22 C171 (Q9UPT9)) | isoTOP-ABPP reactivity ratio, P00813_C75 (ADA C75 (P00813)) | isoTOP-ABPP reactivity ratio, Q15306_C194 (IRF4 C194 (Q15306)) | isoTOP-ABPP ratio (reactivity profile), Q9Y3Z3_C522 (SAMHD1 C522 (Q9Y3Z3); 500 μm in-vitro ramos) | isoTOP-ABPP reactivity ratio, P68036_C86 (UBE2L3 C86 (P68036); in-vitro_ramos) | also measured
Cn1cc(S(=O)(=O)N2CCOCC2)cc1C(=O)NC(=O)CCl [compound 11] | 7.5 | 4.3 | 2.1 | 1.0 | 8.2 |  |  |  |  | 
C=CC(=O)N(c1ccccc1)c1ccc(Br)cc1 [compound 5] | 2.5 | 2.2 |  | 4.8 | 20.0 |  |  |  |  | isoTOP-ABPP ratio, Q9Y3Z3_C522 (SAMHD1 C522 (Q9Y3Z3); ramos): 5.4
CCN(CC)c1ccc(S(N)(=O)=O)cc1NC(=O)CCl [compound 30] |  |  |  |  |  | 3.1 | 1.7 | 0.7 | 1.5 | isoTOP-ABPP reactivity ratio, Q9UPT9_C171 (USP22 C171 (Q9UPT9); in-vitro_ramos): 2.3
CC(C)CCOCCNC(=O)CCl [compound 27] |  |  |  |  |  |  |  | 0.9 |  | isoTOP-ABPP ratio (reactivity profile), P00813_C75 (ADA C75 (P00813); 500 μm in-vitro ramos): 1.0; isoTOP-ABPP ratio (reactivity profile), P00813_C75 (ADA C75 (P00813); 500 μm in-vitro ramos_231): 1.1; isoTOP-ABPP ratio (reactivity profile), Q15306_C194 (IRF4 C194 (Q15306); 500 μm in-vitro ramos): 1.0; isoTOP-ABPP ratio (reactivity profile), Q9Y3Z3_C522 (SAMHD1 C522 (Q9Y3Z3); 500 μm in-vitro ramos_231): 0.8 and 1.0; isoTOP-ABPP ratio (reactivity profile), P68036_C86 (UBE2L3 C86 (P68036); 500 μm in-vitro ramos_231): 1.2 and 0.9; isoTOP-ABPP ratio (reactivity profile), Q9UPT9_C171 (USP22 C171 (Q9UPT9); 500 μm in-vitro ramos): 1.2
O=C(CCl)N1CCN(S(=O)(=O)c2ccccc2F)CC1 [compound 10] | 1.0 | 2.5 | 1.8 | 0.4 | 3.8 |  |  |  |  | isoTOP-ABPP ratio, P68036_C86 (UBE2L3 C86 (P68036); 231): 1.1
C=CC(=O)N(Cc1cccnc1)c1cc(C(F)(F)F)cc(C(F)(F)F)c1 [compound 31] |  |  |  |  |  | 0.8 | 1.1 |  | 1.3 | isoTOP-ABPP reactivity ratio, Q9Y3Z3_C522 (SAMHD1 C522 (Q9Y3Z3); 500 μm, in-vitro_ramos_231): 1.5; isoTOP-ABPP reactivity ratio, P68036_C86 (UBE2L3 C86 (P68036); in-vitro_ramos_231): 1.7; isoTOP-ABPP reactivity ratio, Q9UPT9_C171 (USP22 C171 (Q9UPT9); in-vitro_ramos_231): 2.1
